One data set deals with nephritis rat models. As to the kind of experiment: Nephritis rat model induced by anti-glomerular basement membrane antibody: kidney function markers and kidney pathology. It is filed as in vivo. As to conditions: for urine protein: 24-hour urine on 7th day from induction.
Data set [1] relates to casein kinase 2 α subunit. As to the kind of experiment: Western blot of casein kinase 2 α subunit protein in kidney tissue of nephritis rats given oligonucleotides. As to conditions: 12 μg/day into kidney tissue by Alzet pump from one day before induction to 7th day. It is filed as in vivo, rat. The protocol:
This example was carried out for studying the effect of administration of an antisense oligonucleotide against casein kinase 2 α subunit, so as to confirm the utility of the present invention. To rats (Wistar-Kyoto strain, male, body weight 190 to 210 g), rabbit anti-glomerular basement membrane antibody was intravenously administered (0.3 ml/kg) to induce nephritis. […] The nucleic acid molecules of the oligonucleotides were S-oligonucleotides containing phosphorothioate moieties, and a cationic liquid (Polyplus transfection) was used for making the uptake of the oligonucleotide easier. More particularly, the groups used in the experiment were normal group (normal rats to which the antisense oligonucleotide against casein kinase 2 α subunit and the antisense oligonucleotide were not administered, n=8), nephritis control group (nephritis rats to which the antisense oligonucleotide against casein kinase 2 α subunit and the antisense oligonucleotide were not administered, n=8), nephritis+antisense oligonucleotide against casein kinase 2 α subunit-administered group (group of the present invention, nephritis rats to which the antisense oligonucleotide against casein kinase 2 α subunit was administered, n=4), and nephritis+sense oligonucleotide of casein kinase 2 α subunit-administered group (negative control group, nephritis rats to which the sense oligonucleotide of casein kinase 2 α subunit was administered), totally four groups. On the 7th day from the induction, all rats were placed in metabolic cages, and urine excreted during 24 hours was collected and the amount of the urine was measured. The urine was then centrifuged at 3000 rpm for 15 minutes, and the urine protein in the supernatant was measured. Further, after the collection of urine, the kidneys were isolated, proteins were extracted from each kidney tissue by a conventional method, and the proteins (1 mg/ml, 20 μl) were electrophoresed (PAGERUN, ATTO, 40 mA, 84 min) on 12.5% polyacrylamide gel (PAGEL, ATTO). The electrophoresed proteins were blotted (100V, 90 min) on a PVDF membrane (Millipore). The membrane was blocked (Blocking Ace, Dainippon Pharmaceutical, 4° C., 1 hour), and washed three times (10 min) with PBS containing Tween 20. Then the membrane was incubated (at room temperature for 1 hour) with an anti-casein kinase 2 α subunit (originated from goat, Santa cruz, 100-fold diluted) as the primary antibody. […] After the incubation, the amounts of the casein kinase 2 α subunit protein were measured, respectively, using ECL reagent (Amersham). This measurement was carried out by taking photographs of the detected casein kinase 2 so as to make image files of the amount of the casein kinase 2 protein, and digitalizating the image file using a software NIH Image on Macintosh.
In general terms: In western blotting, separated proteins are transferred to a membrane and probed.

The mark [2] stands for this setting: oligonucleotide 12 μg/day into kidney tissue, FIG. 2.

The values that follow come from patent publication US20080269155A1, “REMEDY OR PREVENTIVE FOR KIDNEY DISEASE AND METHOD OF DIAGNOSING KIDNEY DISEASE” (TORAY INDUSTRIES INC., priority 2002, published 2008).

For “5′-GTAATCATCTTGATTACCCCA-3′ (chemistry not given here)”, in the data set with nephritis rat models (setting [2]), the urine protein result is on record as “significantly decreased”. The “Protein Amount Ratio of Casein Kinase 2 α Subunit” value was “prominently decreased” in data set [1] (no-oligonucleotide kidney = 1) and 0.45 in data set [1] (no-oligonucleotide kidney = 1, listed as Antisense Oligonucleotide).
With “5′-TGGGGTATCAATCAAGATGATTAC-3′ (chemistry not given here) [negative control]”, in the data set with nephritis rat models (setting [2]), the urine protein result is “did not significantly decrease”. Moreover, the “Protein Amount Ratio of Casein Kinase 2 α Subunit” value in data set [1] (no-oligonucleotide kidney = 1) is recorded as “did not decrease”; in data set [1] (no-oligonucleotide kidney = 1, listed as Sense Oligonucleotide), 1.07.
Take `Cc1cc(O)c2c(c1)C(=O)c1cc(O)cc(O)c1C2=O` [3-methyl-1,6,8-trihydroxyanthraquinone]: the blood creatinine level result in the data set on nephritis rat models (20 mg/l kg body weight intraperitoneally once a day, 14th day from induction, FIG. 6) is listed as “almost normalized”. Further, the urine protein result in the data set on nephritis rat models (20 mg/l kg body weight intraperitoneally once a day, FIG. 5) is “significantly decreased”. Further, the “pathological finding of the kidney tissue” value with nephritis rat models (20 mg/l kg body weight intraperitoneally once a day, hematoxylin-eosin-stained specimens) is “improvements in the glomeruli and in the renal tubule interstitium were observed”.
Turning to `O=c1cc(-c2ccc(O)cc2)oc2cc(O)cc(O)c12` [apigenin], the urine protein result with nephritis rat models (apigenin 20 mg/l kg body weight intraperitoneally once a day, FIG. 4) is “significantly decreased”.
